Paper PMC11152041, “Tricarbonyl rhenium(I) complexes with 8-hydroxyquinolines: structural, chemical, antibacterial, and anticancer characteristics” (RSC Advances, 2024)
Where two headings read alike, the source gives them in different places.

What was measured:
E. faecalis ATCC29212 = experiment: Broth microdilution MIC/MBC (ISO 20776-1); type: cell-based, Enterococcus faecalis; conditions: for MBC: E. faecalis ATCC29212, >99.99% reduction of growth; for MIC: E. faecalis ATCC29212, MH II broth, 35 °C, 24 h
Procedure: (§1) Bacterial strains and cell lines were obtained from the American Type Culture Collection (ATCC).[59] […] Antimicrobial activity was tested in Müeller Hinton (MH) II broth (Becton Dickinson). For anticancer activity assay, the following reagents from Merk were used: 3-(4,5-dimethylthiazol-2-yl)-2,5-diphenyltetrazolium bromide (MTT), sodium dodecyl sulfate (SDS) and HCl. The solubilized formazan product was spectrophotometrically quantified in a Power Wave XS (Bio Tek, Winooski, VT, USA) microplate reader. The HL-60 and PC-3 cells were grown in RPMI-1640 medium with stable glutamine (Biowest) supplemented with 10% (v/v) of heat-inactivated fetal bovine serum (FBS, Biowest) and 1% (v/v) of antibiotic–antimycotic solution (Biowest). The SKOV-3 cells were grown in McCoy's 5A medium with L-glutamine (Biowest) supplemented with 10% (v/v) heat-inactivated FBS, and 1% (v/v) antibiotic–antimycotic solution. The MCF-7 cells were grown in Eagle's MEM (Minimal Essential Medium) medium with stable glutamine (Biowest), supplemented with 10% (v/v) heat-inactivated FBS 1% (v/v) MEM non-essential amino acids (Biowest), 1% (v/v) antibiotic–antimycotic solution, and 1 mM sodium pyruvate (Merck). The MCF-10A cells were grown in Ham's F-12K (Kaighn's) Medium with stable glutamine (Gibco) supplemented with 5% (v/v) heat-inactivated FBS, 1% (v/v) MEM non-essential amino acids, 1% (v/v) antibiotic–antimycotic solution, 5 μg mL^−1 insulin, 0.04 μg mL^−1 hydrocortisone (Merck), and 15 ng mL^−1 human Epidermal Growth Factor (hEGF, PeproTech).
(§2) The in vitro antibacterial activity was determined according to ISO 20776-1.[88] Among the tested microorganisms were Gram-negative rods, E. coli ATCC25922 and P. aeruginosa ATCC27853, and Gram-positive cocci, S. aureus ATCC29213 and E. faecalis ATCC29212. The selected bacterial species represented the most common etiologic agents of human infections and are used for quality control of antimicrobial susceptibility testing.[89] The test procedure included the determination of MICs and MBCs of complexes and their free ligands. MIC and MBC determinations of ciprofloxacin, as the reference antibiotic, were also performed. All compounds were dissolved in DMSO to reach the maximum 512 mg L^−1 concentration. […] The assay consisted of preparing 2-fold dilutions of the substances in a liquid growth medium MH II and inoculating them with a standardized suspension of microorganisms at a McFarland density of 0.5 (≈10^8 CFU mL^−1). The culture plates were incubated at 35 °C for 24 h. The lowest concentration of the compound inhibiting visible bacterial growth was specified as MIC, and the concentration that reduced bacterial growth by >99.99% after counting live bacteria on the plates compared to the positive control was defined as MBC.

P. aeruginosa ATCC27853 = experiment: Broth microdilution MIC/MBC (ISO 20776-1); type: cell-based, Pseudomonas aeruginosa; conditions: for MBC: P. aeruginosa ATCC27853, >99.99% reduction of growth; for MIC: P. aeruginosa ATCC27853, MH II broth, 35 °C, 24 h
Procedure: as §1, §2

MCF-10A cells = experiment: MTT cytotoxicity assay; conditions: for solubility in the cytotoxicity assay: MCF-10A cell line culture medium; for IC50: read-out: IC50 ± SD, MCF-10A (non-cancerous), MTT, * precipitation of the complex
Procedure: (§3) The cytotoxicities for studied compounds were evaluated against leukemia cells (HL-60), as well as ovarian (SKOV-3), prostate (PC-3), and breast (MCF-7) cancer cell lines. The potential selectivity of these compounds towards cancer cells was assessed by determination of their cytotoxicities towards breast non-cancerous cells (MCF-10A). For comparison, cisplatin was added to the cytotoxicity assays.
as §1
(§4) The cells were cultured in 96-well plates and incubated with the tested compound for 24 h and 48 h. All experiments were performed in exponentially growing cultures. The 0.03 M solutions of the compounds in DMSO were appropriately diluted using culture media. The maximal final concentration of DMSO in each well was 0.1%. The cytotoxicity of the compounds was measured by determining cell viability with a colorimetric test based on 3-(4,5-dimethylthiazol-2-yl)-2,5-diphenyltetrazolium bromide (MTT). MTT stock solution was added to each well to a final concentration of 0.5 mg mL^−1 and incubated for 4 h at 37 °C; following formazan crystals were dissolved by the addition of sodium dodecyl sulfate (SDS) solution (10% SDS in 0.001 M HCl). MTT and SDS were added directly to the cell culture. The compound's IC50 values (concentration required to reduce the viability of cells by 50% compared with the control cells) were calculated from the data obtained with the MTT assay.

E. coli ATCC25922 = experiment: Broth microdilution MIC/MBC (ISO 20776-1); type: cell-based, Escherichia coli; conditions: for MBC: E. coli ATCC25922, >99.99% reduction of growth; for MIC: E. coli ATCC25922, MH II broth, 35 °C, 24 h
Procedure: as §1, §2

PC-3 cells = experiment: MTT cytotoxicity assay; type: cell-based, human; conditions: for IC50: MTT, read-out: IC50 ± SD
Procedure: as §3, §1, §4

MCF-7 cells = experiment: MTT cytotoxicity assay; type: cell-based, human; conditions: MTT, read-out: IC50 ± SD
Procedure: as §3, §1, §4

HL-60 cells = experiment: MTT cytotoxicity assay; type: cell-based, human; conditions: MTT, read-out: IC50 ± SD
Procedure: as §3, §1, §4

SKOV-3 cells = experiment: MTT cytotoxicity assay; type: cell-based, human; conditions: MTT, read-out: IC50 ± SD
Procedure: as §3, §1, §4

S. aureus ATCC29213 = experiment: Broth microdilution MIC/MBC (ISO 20776-1); type: cell-based, Staphylococcus aureus; conditions: for MBC: S. aureus ATCC29213, >99.99% reduction of growth; for MIC: S. aureus ATCC29213, MH II broth, 35 °C, 24 h
Procedure: as §1, §2

Molecule	MBC (E. faecalis ATCC29212)	MIC (E. faecalis ATCC29212)	MBC (P. aeruginosa ATCC27853)	MIC (P. aeruginosa ATCC27853)	IC50 (MCF-10A cells; 24 h) [µM]	IC50 (MCF-10A cells; 48 h) [µM]	MBC (E. coli ATCC25922)	MIC (E. coli ATCC25922)	IC50 (PC-3 cells; PC-3, 24 h) [µM]	IC50 (PC-3 cells; PC-3, 48 h) [µM]	IC50 (MCF-7 cells; MCF-7, 24 h) [µM]	IC50 (MCF-7 cells; MCF-7, 48 h) [µM]	IC50 (HL-60 cells; HL-60, 24 h) [µM]	IC50 (HL-60 cells; HL-60, 48 h) [µM]	IC50 (SKOV-3 cells; SKOV-3, 24 h) [µM]	IC50 (SKOV-3 cells; SKOV-3, 48 h) [µM]	MBC (S. aureus ATCC29213)	MIC (S. aureus ATCC29213)	other results
Cc1ccc2cccc([O][Re])c2n1.[C-]#[O+].[C-]#[O+].[C-]#[O+].c1c[nH]cn1 [complex 5, [Re(CO)3(MeQ)Him]]	> 512 mg/L	32 mg/L	64 mg/L	16 mg/L	50 ± 2	> 50	16/16 mg L^−1	16/16 mg L^−1	11 ± 3	28 ± 6	47 ± 7	43 ± 6	11 ± 2	4 ± 1	31 ± 5	26 ± 11	512 mg/L	16 mg/L	fold increase of MBC compared to the free ligand (E. faecalis ATCC29212; E. faecalis, compared with MeHQ): 4 fold; fold better activity than the free MeHQ ligand (P. aeruginosa ATCC27853; P. aeruginosa, MIC/MBC compared with MeHQ): 4 fold; solubility in the cytotoxicity assay (MCF-10A cells): precipitated at higher concentrations; fold decline of MBC compared to the free ligand (E. coli ATCC25922; E. coli, compared with MeHQ): 5 fold; times lower effect after 48 h than after 24 h (PC-3 cells; PC-3, IC50 48 h versus 24 h): about 2.5 times
Cc1ccc2cccc([O][Re])c2n1.Cc1ncc[nH]1.[C-]#[O+].[C-]#[O+].[C-]#[O+] [complex 6, [Re(CO)3(MeQ)MeHim]]	256 mg/L	64 mg/L	>512/>512 mg L^−1	>512/>512 mg L^−1	66 ± 1	35 ± 1	>512/>512 mg L^−1	>512/>512 mg L^−1	54 ± 7	22 ± 5	44 ± 1	35 ± 6	14 ± 1	9 ± 1	32 ± 7	30 ± 9	512 mg/L	64 mg/L	–
Cc1cc(C)[nH]n1.Cc1ccc2cccc([O][Re])c2n1.[C-]#[O+].[C-]#[O+].[C-]#[O+] [complex 7, [Re(CO)3(MeQ)Hdmpz]]	> 512 mg/L	128 mg/L	>512/>512 mg L^−1	>512/>512 mg L^−1	> 25	> 25	>512/>512 mg L^−1	>512/>512 mg L^−1	16 ± 2	18 ± 4	27 ± 8	19 ± 4	13 ± 1	12 ± 1	29 ± 5	26 ± 5	>512/>512 mg L^−1	>512/>512 mg L^−1	solubility in the cytotoxicity assay (MCF-10A cells): precipitated at higher concentrations
Clc1ccc([O][Re])c2ncccc12.[C-]#[O+].[C-]#[O+].[C-]#[O+].c1c[nH]cn1 [complex 9, [Re(CO)3(ClQ)Him]]	> 512 mg/L	64 mg/L	> 512 mg/L	256 mg/L	42 ± 2	24 ± 1	256/256 mg L^−1	256/256 mg L^−1	29 ± 4	22 ± 3	58 ± 7	47 ± 6	11 ± 1	8 ± 2	32 ± 5	28 ± 4	>512/>512 mg L^−1	>512/>512 mg L^−1	–
Cc1cc(C)[nH]n1.Clc1ccc([O][Re])c2ncccc12.[C-]#[O+].[C-]#[O+].[C-]#[O+] [complex 11, [Re(CO)3(ClQ)Hdmpz]]	64/64 mg L^−1	64/64 mg L^−1	>512/>512 mg L^−1	>512/>512 mg L^−1	24 ± 3	10 ± 1	512/>512 mg L^−1	512/>512 mg L^−1	18 ± 1	24 ± 4	18 ± 5	25 ± 3	5 ± 1	2.8 ± 0.4	40 ± 6	32 ± 7	256 mg/L	64 mg/L	–
Clc1ccc([O][Re])c2ncccc12.[C-]#[O+].[C-]#[O+].[C-]#[O+].c1ccc(-c2ccn[nH]2)cc1 [complex 12, [Re(CO)3(ClQ)HPhpz]]	> 512 mg/L	16 mg/L	>512/>512 mg L^−1	>512/>512 mg L^−1	34 ± 3	14 ± 1	>512/>512 mg L^−1	>512/>512 mg L^−1	41 ± 8	23 ± 4	29 ± 3	25 ± 4	2 ± 1	1.5 ± 0.4	> 100	78 ± 12	> 512 mg/L	128 mg/L	–
[Re(CO)3(ClQ)MeHim]·CH3CN [complex 10]	> 512 mg/L	4 mg/L	512/>512 mg L^−1	512/>512 mg L^−1	15 ± 1	12 ± 1	512/>512 mg L^−1	512/>512 mg L^−1	23 ± 2	23 ± 2	54 ± 4	53 ± 4	5 ± 1	7 ± 1	34 ± 5	32 ± 7	> 512 mg/L	64 mg/L	–
